{"source": "patent US12077503B2", "about": "“Substituted cyclic amides and their use as herbicides” (FMC CORPORATION, priority 2015, dated 2024)", "assay_type_in_all_cases": "in vivo", "key": {"[1]": {"system": "barnyardgrass (Echinochloa crus-galli)", "assay": "Test G Pre-Emergence Protocol", "settings": "Echinochloa crus-galli, pre-emergence, 312 h, evaluated after 13 days", "how_it_was_run": "(§1)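 Herbicidal effect was rated 13 days post-application on a scale where 100 equals total damage. Spraying took place the day after sowing, using 15.625, 62.5 or 250 g/ha of compound in a 50:50 acetone/water solution with 0.5% Tween 20.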"}, "corn (Zea mays) [2]": {"system": "corn (Zea mays)", "assay": "Test G Pre-Emergence Protocol", "settings": "Zea mays, pre-emergence, 312 h, evaluated after 13 days", "how_it_was_run": "as §1"}, "[3]": {"system": "giant foxtail (Setaria faberi)", "assay": "Test G Pre-Emergence Protocol", "settings": "Setaria faberi, pre-emergence, 312 h, evaluated after 13 days", "how_it_was_run": "as §1"}, "[4]": {"system": "ivy-leaved morning glory (Ipomoea hederacea)", "assay": "Test G Pre-Emergence Protocol", "settings": "Ipomoea, pre-emergence, 312 h, evaluated after 13 days", "how_it_was_run": "as §1"}, "[5]": {"system": "redroot pigweed (Amaranthus retroflexus)", "assay": "Test G Pre-Emergence Protocol", "settings": "Amaranthus retroflexus, pre-emergence, 312 h, evaluated after 13 days", "how_it_was_run": "as §1"}, "[6]": {"system": "velvetleaf (Abutilon theophrasti)", "assay": "Test G Pre-Emergence Protocol", "settings": "Abutilon theophrasti, pre-emergence, 312 h, evaluated after 13 days", "how_it_was_run": "as §1"}, "[7]": {"system": "barnyardgrass (Echinochloa crus-galli)", "assay": "Test G Post-Emergence Protocol", "settings": "Echinochloa crus-galli, post-emergence, 312 h, read-out: Barnyardgrass damage rating", "how_it_was_run": "(§2)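 Foliar application was made 8 days after sowing, using an aqueous spray of the active in acetone/water (50:50) with 0.5% Tween 20, at doses of 15.625, 62.5 or 250 g/ha. Injury was assessed 13 days later, where 100 meant the plant was fully damaged.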"}, "corn (Zea mays) [8]": {"system": "corn (Zea mays)", "assay": "Test G Post-Emergence Protocol", "settings": "Zea mays, post-emergence, 312 h, read-out: Corn damage rating", "how_it_was_run": "as §2"}, "[9]": {"system": "giant foxtail (Setaria faberi)", "assay": "Test G Post-Emergence Protocol", "settings": "Setaria faberi, post-emergence, 312 h, read-out: Foxtail, Giant damage rating", "how_it_was_run": "as §2"}, "[10]": {"system": "ivy-leaved morning glory (Ipomoea hederacea)", "assay": "Test G Post-Emergence Protocol", "settings": "Ipomoea, post-emergence, 312 h, read-out: Morningglory, Ivy-leaved damage rating", "how_it_was_run": "as §2"}, "[11]": {"system": "redroot pigweed (Amaranthus retroflexus)", "assay": "Test G Post-Emergence Protocol", "settings": "Amaranthus retroflexus, post-emergence, 312 h, read-out: Pigweed, Redroot damage rating", "how_it_was_run": "as §2"}, "[12]": {"system": "velvetleaf (Abutilon theophrasti)", "assay": "Test G Post-Emergence Protocol", "settings": "Abutilon theophrasti, post-emergence, 312 h, read-out: Velvetleaf damage rating", "how_it_was_run": "as §2"}, "[13]": {"settings": "15.625 g ai/ha, evaluated after 13 days (100=total damage to plant; 0=no damage to plant)"}, "[14]": {"settings": "62.5 g ai/ha, evaluated after 13 days, 100=total damage to plant, 0=no damage to plant"}, "[15]": {"settings": "250 g ai/ha, evaluated after 13 days, 100=total damage to plant, 0=no damage to plant"}}, "data": [{"smiles": "CN1C[C@H](c2ccc(Cl)cc2)[C@@H](C(=O)Nc2cnccc2C(F)(F)F)C1=O", "note": "[Compound 1812]", "values": [{"measurement": "pest or weed control at 15.625 g/ha", "setting": "[1]; 15.625 g ai/ha, read-out: Barnyardgrass damage rating (100=total damage to plant; 0=no damage to plant)", "value": 0, "unit": "%"}, {"measurement": "pest or weed control at 62.5 g/ha", "setting": "[1]; 62.5 g ai/ha, 100=total damage to plant, 0=no damage to plant, read-out: Barnyardgrass damage rating", "value": 0, "unit": "%"}, {"measurement": "pest or weed control at 250 g/ha", "setting": "[1]; 250 g ai/ha, read-out: Barnyardgrass damage rating (100=total damage to plant; 0=no damage to plant)", "value": 70, "unit": "%"}, {"measurement": "plant injury at 15.625 g/ha", "setting": "corn (Zea mays) [2]; 15.625 g ai/ha, read-out: Corn damage rating (100=total damage to plant; 0=no damage to plant)", "value": 0, "unit": "%"}, {"measurement": "plant injury at 62.5 g/ha", "setting": "corn (Zea mays) [2]; 62.5 g ai/ha, 100=total damage to plant, 0=no damage to plant, read-out: Corn damage rating", "value": 0, "unit": "%"}, {"measurement": "plant injury at 250 g/ha", "setting": "corn (Zea mays) [2]; 250 g ai/ha, read-out: Corn damage rating (100=total damage to plant; 0=no damage to plant)", "value": 40, "unit": "%"}, {"measurement": "pest or weed control at 15.625 g/ha", "setting": "[3]; 15.625 g ai/ha, read-out: Foxtail, Giant damage rating (100=total damage to plant; 0=no damage to plant)", "value": 90, "unit": "%"}, {"measurement": "pest or weed control at 62.5 g/ha", "setting": "[3]; 62.5 g ai/ha, 100=total damage to plant, 0=no damage to plant, read-out: Foxtail, Giant damage rating", "value": 90, "unit": "%"}, {"measurement": "pest or weed control at 250 g/ha", "setting": "[3]; 250 g ai/ha, read-out: Foxtail, Giant damage rating (100=total damage to plant; 0=no damage to plant)", "value": 90, "unit": "%"}, {"measurement": "pest or weed control at 15.625 g/ha", "setting": "[4]; 15.625 g ai/ha, read-out: Morningglory, Ivy-leaved damage rating (100=total damage to plant; 0=no damage to plant)", "value": 0, "unit": "%"}, {"measurement": "pest or weed control at 62.5 g/ha", "setting": "[4]; 62.5 g ai/ha, 100=total damage to plant, 0=no damage to plant, read-out: Morningglory, Ivy-leaved damage rating", "value": 0, "unit": "%"}, {"measurement": "pest or weed control at 250 g/ha", "setting": "[4]; 250 g ai/ha, read-out: Morningglory, Ivy-leaved damage rating (100=total damage to plant; 0=no damage to plant)", "value": 40, "unit": "%"}, {"measurement": "pest or weed control at 15.625 g/ha", "setting": "[5]; 15.625 g ai/ha, read-out: Pigweed, Redroot damage rating (100=total damage to plant; 0=no damage to plant)", "value": 0, "unit": "%"}, {"measurement": "pest or weed control at 62.5 g/ha", "setting": "[5]; 62.5 g ai/ha, 100=total damage to plant, 0=no damage to plant, read-out: Pigweed, Redroot damage rating", "value": 20, "unit": "%"}, {"measurement": "pest or weed control at 250 g/ha", "setting": "[5]; 250 g ai/ha, read-out: Pigweed, Redroot damage rating (100=total damage to plant; 0=no damage to plant)", "value": 70, "unit": "%"}, {"measurement": "pest or weed control at 15.625 g/ha", "setting": "[6]; 15.625 g ai/ha, read-out: Velvetleaf damage rating (100=total damage to plant; 0=no damage to plant)", "value": 0, "unit": "%"}, {"measurement": "pest or weed control at 62.5 g/ha", "setting": "[6]; 62.5 g ai/ha, 100=total damage to plant, 0=no damage to plant, read-out: Velvetleaf damage rating", "value": 40, "unit": "%"}, {"measurement": "pest or weed control at 250 g/ha", "setting": "[6]; 250 g ai/ha, read-out: Velvetleaf damage rating (100=total damage to plant; 0=no damage to plant)", "value": 80, "unit": "%"}, {"measurement": "pest or weed control at 15.625 g/ha", "setting": "[7]; [13]", "value": 0, "unit": "%"}, {"measurement": "pest or weed control at 62.5 g/ha", "setting": "[7]; [14]", "value": 0, "unit": "%"}, {"measurement": "pest or weed control at 250 g/ha", "setting": "[7]; [15]", "value": 70, "unit": "%"}, {"measurement": "plant injury at 15.625 g/ha", "setting": "corn (Zea mays) [8]; [13]", "value": 0, "unit": "%"}, {"measurement": "plant injury at 62.5 g/ha", "setting": "corn (Zea mays) [8]; [14]", "value": 0, "unit": "%"}, {"measurement": "plant injury at 250 g/ha", "setting": "corn (Zea mays) [8]; [15]", "value": 50, "unit": "%"}, {"measurement": "pest or weed control at 15.625 g/ha", "setting": "[9]; [13]", "value": 0, "unit": "%"}, {"measurement": "pest or weed control at 62.5 g/ha", "setting": "[9]; [14]", "value": 80, "unit": "%"}, {"measurement": "pest or weed control at 250 g/ha", "setting": "[9]; [15]", "value": 80, "unit": "%"}, {"measurement": "pest or weed control at 15.625 g/ha", "setting": "[10]; [13]", "value": 0, "unit": "%"}, {"measurement": "pest or weed control at 62.5 g/ha", "setting": "[10]; [14]", "value": 50, "unit": "%"}, {"measurement": "pest or weed control at 250 g/ha", "setting": "[10]; [15]", "value": 70, "unit": "%"}, {"measurement": "pest or weed control at 15.625 g/ha", "setting": "[11]; [13]", "value": 0, "unit": "%"}, {"measurement": "pest or weed control at 62.5 g/ha", "setting": "[11]; [14]", "value": 20, "unit": "%"}, {"measurement": "pest or weed control at 250 g/ha", "setting": "[11]; [15]", "value": 50, "unit": "%"}, {"measurement": "pest or weed control at 15.625 g/ha", "setting": "[12]; [13]", "value": 0, "unit": "%"}, {"measurement": "pest or weed control at 62.5 g/ha", "setting": "[12]; [14]", "value": 10, "unit": "%"}, {"measurement": "pest or weed control at 250 g/ha", "setting": "[12]; [15]", "value": 60, "unit": "%"}]}]}
